This assay can be described thus: Prospective, multinational, multicentre, double-blind, placebo-controlled clinical study in patients with a history of atrial fibrillation or atrial flutter. The assay is classed as in vivo. As to the method: The patients had to have a history of atrial fibrillation or flutter and/or could be in normal sinus rhythm or in atrial fibrillation or flutter at inclusion.
The patient recruitment was carried out by taking into account the following inclusion criteria:
Inclusion Criteria: • 1) One of the following risk factors had to be present: • age equal to or above 70, or even above 75, possibly combined with at least one of the risk factors below: • hypertension (taking antihypertensives of at least two different classes), • diabetes, • history of cerebral stroke (transient ischemic event or completed cerebral stroke) or of systemic embolism, • left atrial diameter greater than or equal to 50 mm measured by echocardiography, • left ventricular ejection fraction less than 40%, measured by two-dimensional echography; • 2) availability of an electrocardiogram carried out during the past 6 months in order to document the presence or the history of atrial fibrillation or flutter; • 3) availability of an electrocardiogram carried out during the past 6 months in order to document the presence or absence of normal sinus rhythm.
Treatment was initiated using tablets containing either the placebo or an amount of dronedarone hydrochloride corresponding to 400 mg of dronedarone at a rate of one tablet in the morning during or shortly after breakfast and one tablet in the evening during or shortly after dinner.
The anticipated duration of the treatment was variable according to the time at which each patient was included in the study, and could range from a minimum of 12 months for the last patient included up to a maximum corresponding to the entire duration of the study (12 months+duration of inclusion), i.e. approximately 30 months for the first patients included.
The potassium concentration-modulating effect is clearly documented in the study by virtue of the results of analyses of regular blood samples taken throughout the duration of the study in the context of the monitoring of vital parameters.
The variations in potassium (in mmol/l) between the first and the last administration of the medicament of the study are included in FIG. 1, in which B signifies basal level, D signifies day and M signifies month.
The number of patients with hypokalaemia was compared using Fischer's exact test. Hypokalaemia is defined as a concentration in potassium ion [K+] below 3 mmol/L.

Where [1] appears, read: among 2255 treated patients with a potassium measurement, from randomization until last administration.

Counter-ions that a name gives are not always drawn.

For the compound `CCCCc1oc2ccc(NS(C)(=O)=O)cc2c1C(=O)c1ccc(OCCCN(CCCC)CCCC)cc1` [dronedarone hydrochloride], under setting [1], the “number of patients with hypokalaemia ([K+] below 3 mmol/L)” value is given as 14 patients and the “proportion of patients with hypokalaemia ([K+] below 3 mmol/L)” value is given as 0.6%.

For `CCCCc1oc2ccc(NS(C)(=O)=O)cc2c1C(=O)c1ccc(OCCCN(CCCC)CCCC)cc1` [dronedarone, 2-n-Butyl-3-[4-(3-di-n-butylaminopropoxy)benzoyl]-5-methylsulphonamidobenzofuran], the “change in blood potassium level (analysis of covariance, taking into account the starting value)” value (compared to placebo, after the 24th month, 400 mg dronedarone twice daily, p<0.0001) is on record as “significant difference in favour of dronedarone”. Besides, the “reduction in the risk of sudden death” value is recorded as 62% (hypertensive patients) and 45.5% (patients who were not hypertensive). Also, the “reduction in the risk of sudden death compared with the placebo” value (patients not taking diuretics) was 34% and the “reduction in the risk of sudden death compared with the placebo” value (patients on diuretics) worked out at 70.4%.

The values above are taken from patent US20110124724A1, “USE OF DRONEDARONE OR A PHARMACEUTICALLY ACCEPTABLE SALT THEREOF, FOR THE PREPARATION OF A MEDICAMENT FOR REGULATING THE POTASIUM LEVEL IN THE BLOOD” (SANOFI-AVENTIS, priority 2008, published 2011).
